System: HCV particles released by BHK-21 parental or BHK-WNV1 cells
Assay: Release of HCV envelope proteins/particles by BHK cells transfected with pHCVp7 after glycosylation or trafficking inhibitors (Western blot)
Assay type: cell-based, HCV 1a
Details: for HCV production and/or secretion: summary in the model of FIG. 13; for secretion of HCV envelope as well as core proteins: BHK parental and -WNV SG-replicon cells transfected with pHCVp7, 3 mM dnj, 3 mM pag or 0.3 mM alloxan, Western blot
Description: FIG. 2 illustrates factors affecting the release of HCV structural proteins: A) Enhancement by flavivirus, but not alphavirus subgenomic, replicons in BHK-21 cells: BHK-21 parental cells (lane 1) or bearing WNV1 (lane 2), Den2 (lane 3) or Semliki Forest virus SG-replicon (lane 4) were transfected with pHCVp7 (plasmid encoding HCV core to p7). Three days later, clarified culture media were pelleted over 15% sucrose cushion, then pellets were analyzed by Western blot with the following monoclonal antibodies: i) anti-HCV E2: AP33; ii) anti-HCV E1: A4, and iii) anti-HCV core: C1. B) WNV- and HCV-SG rep differentially affect the release of HCV-like particles. (left) BHK-21 cells, parental or bearing WNV1 SG-rep, were transfected with HCVp7, a plasmid encoding HCV core to p7. Three days later, HCV proteins in the lysate and supernatants (SN) were analyzed by Western Blot (WB). (right) HuH-7.5 cells (parental or harboring HCV 1a SG-rep) transfected with the same plasmid, were analyzed by WB. *, the E1/E2 signals were obtained with 60 ml of culture media instead of 15 ml for BHK parental and -WNV1 cells. C) N-glycosylation but not O-glycosylation is required for the release of HCV particles: BHK cells were transfected with pHCVp7, then treated or not with 3 mM deoxynojirimycin (dnj), 3 mM phenyl acetyl galactosaminide (pag) or 0.3 mM alloxan (all) for 2 days; HCV E1 Envelope released by BHK-21 parental or BHK-WNV1 cells was analyzed by Western blot after incubation with or without endoglycosidase H (endo-H).
FIG. 11 illustrates that secretion of HCV particles involves maturation of HCV glycoproteins in Golgi apparatus: A) Twelve hours after transfection of BHK-WNV1 cells with pHCVp7, cells were treated with 20 μM brefeldin-A (BFA) for 24 hours and the amounts of HCV E1 and E2 proteins in cell lysates and released particles were analyzed by WB; Hsp70=control. B) BHK and BHK-WNV1 cells were transfected with pHCVp7. Three days later, cells and particles in SN were harvested and treated with endo-H, followed by WB analysis. *, 30 ml culture media was used for parental BHK cells (15 ml for BHK-WNV1 cells).
To test the sensitivity of HCV glycoproteins produced in BHK-21 cells to endo-beta-N-acetyl-glucosaminidase H (endoglycosidase H/endo-H; New England Biolabs), cells were transfected with pHCVp7 plasmid. Three days later, supernatant was harvested as above; cell lysate and supernatant were then incubated in the presence of endo-H according to the manufacturer's protocols. For deoxyrijinomycin (DNJ) and brefeldin A (BFA) treatment, cells were transfected with pHCVp7 and, 12 hr later, the medium was replaced with DMEM containing 5 μg/ml BFA (Sigma), or 3 mM DNJ. Cells were grown for another 24 hr and supernatant was harvested.

SMILES	HCV secretion (BHK-WNV1 cells, 20 μM BFA for 24 hours)	electrophoretic mobility of intracellular HCV envelope proteins (BHK-WNV1 cells, BFA)	HCV production and/or secretion (BHK-WNV1 cells)	secretion of HCV envelope as well as core proteins	release of HCV particles (parental BHK-21 and BHK-WNV1 cells, 3 mM DNJ)
C[C@H]1CCC/C=C/[C@@H]2C[C@H](O)C[C@H]2[C@H](O)/C=C/C(=O)O1 [BFA, brefeldin A]	abrogated	enhanced	blocked		
O=C1NC(=O)C(=O)C(=O)N1 [alloxan]				marginal effects	
OC[C@H]1NC[C@H](O)[C@@H](O)[C@@H]1O [DNJ, deoxynojirimycin]			blocked	strongly inhibited	decreased
CC(=O)N[C@H]1[C@@H](Oc2ccccc2)O[C@H](CO)[C@H](O)[C@@H]1O [phenyl acetyl galactosaminide]				marginal effects	

From patent US9052321B2, “Flavivirus-based system for production of hepatitis C virus (HCV)” (priority 2008, dated 2015)
